Key:
NPC patients [1] = assay: Plasma lysozyme level in Miglustat-treated NPC patients; assay type: in vivo, human; settings: Miglustat-treated NPC samples vs untreated NPC and healthy controls
Text: (§1) A major hurdle is that inflammatory products of cerebral disease are not easily detected in blood. Inflammation in multiple organs and heterogeneity in disease present additional challenges in distinguishing the extent to which a blood based marker reflects disease in brain or other afflicted organs. We utilized murine models of the monogenetic disorder Niemann Pick Type C (NPC) that present aggressive forms of cerebral and liver inflammatory disease to identify secretory biomarkers for neuroinflammation. […] We utilized 2-hydroxypropyl-beta-cyclodextrin (HPβCD; an emerging therapeutic) administered intraperitoneally in mice, which abrogates inflammatory pathology in the liver but has limited effect on the brain. By analyzing the corresponding effects on inflammatory plasma proteins, we identified cathepsin S as a lead indicator of liver disease. In contrast lysozyme was a marker of both brain and liver disease. The study was extended on human samples. The level of lysozyme and cathepsin S were determined in the plasma samples from healthy individuals (age and gender matched), untreated NPC patients and Miglustat (also known as Zavesca) treated NPC patients. […] The plasma concentration of these two markers in untreated and Miglustat treated NPC samples when analyzed together yielded a composite score to assess extent of neurodegeneration. […]

NPC patients [2] = assay: Plasma cathepsin S level in Miglustat-treated NPC patients; assay type: in vivo, human; settings: patients treated with Miglustat vs untreated NPC patients
Text: as §1

SMILES: CCCCN1C[C@H](O)[C@@H](O)[C@H](O)[C@H]1CO [Miglustat]
- plasma lysozyme level (NPC patients [1]): reduced compared to untreated NPC patients and were equivalent to healthy controls
- plasma cathepsin S (NPC patients [2]): further elevated
